Here are results for 22 compounds from US20230107642A1 (Erasca, Inc., priority 2020, published 2023).

Structures are written as SMILES.

The test concerns the target T1, Cys12 of the KRAS 4B G12C protein (Homo sapiens, UniProt P01116, G12C).
T1 construct: This protein contained 188 amino acids in total, including an N-terminal 6-Histidine tag; made in house; host or cells: E. coli BL21
As to the kind of experiment: In vitro covalent adduct formation (CAF) assay, LC-MS intact mass. The settings on record: 10 uM compound, 60 min. Type of test: binding. The essentials:
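Percent covalent modification from intact-mass LC-MS, by relative free versus adducted protein (adducts within 1 Da of expected mass). Reaction: 10 μM compound with 5 μM E. coli-expressed, GDP-exchanged KRAS 4B G12C in TBS pH 7.4, 4% DMSO, 1 h at 22° C.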
As for `C=CC(=O)N1[C@H](C)CN(c2nc(=O)n3c4c(c(-c5ccc(F)c(Cl)c5)c(C(F)(F)F)cc24)SC[C@H](N2CCOCC2)C3)C[C@@H]1C` [Example 1336, (R)-8-((3S,5R)-4-acryloyl-3,5-dimethylpiperazin-1-yl)-11-(3-chloro-4-fluorophenyl)-3-morpholino-10-(trifluoromethyl)-3,4-dihydro-2H,6H-[1,4]thiazepino[2,3-4-ij]quinazolin-6-one], the “% CAF 10 uM @ 60 min” value is given as 85.5%. Under `C=CC(=O)N1[C@H](C)CN(c2nc(=O)n3c4c(c(-c5ccc(F)c(OC(F)F)c5)c(Cl)cc24)SC[C@@H]3COC)C[C@@H]1C` [Example 1343, (S)-7-((3S,5R)-4-acryloyl-3,5-dimethylpiperazin-1-yl)-9-chloro-10-(3-(difluoromethoxy)-4-fluorophenyl)-3-(methoxymethyl)-2,3-dihydro-5H-[1,4]thiazino[2,3,4-ij]quinazolin-5-one] stands 96%; under `C=CC(=O)N1[C@H](C)CN(c2nc(=O)n3c4c(c(-c5ccc(F)cc5F)c(Cl)cc24)SC[C@@H]3COC)C[C@@H]1C` [Example 1343a, (3S)-7-((3S,5R)-4-acryloyl-3,5-dimethylpiperazin-1-yl)-9-chloro-10-(2,4-difluorophenyl)-3-(methoxymethyl)-2,3-dihydro-5H-[1,4]thiazino[2,3,4-ij]quinazolin-5-one], 96.8%; under `C=CC(=O)N1[C@H](C)CN(c2nc(=O)n3c4c(c(-c5ccc(F)cc5)c(C(F)(F)F)cc24)SC[C@@H]3CN2CCN(CC)CC2)C[C@@H]1C` [Example 1344, (S)-7-((3S,5R)-4-acryloyl-3,5-dimethylpiperazin-1-yl)-3-((4-ethylpiperazin-1-yl)methyl)-10-(4-fluorophenyl)-9-(trifluoromethyl)-2,3-dihydro-5H-[1,4]thiazino[2,3,4-ij]quinazolin-5-one], 96%. Regarding `C=CC(=O)N1CCN(c2nc(=O)n3c4c(c(-c5ccc(F)c(Cl)c5)c(C(F)(F)F)cc24)SC[C@@H]3COC)CC1` [Example 1345, (S)-7-(4-acryloylpiperazin-1-yl)-10-(3-chloro-4-fluorophenyl)-3-(methoxymethyl)-9-(trifluoromethyl)-2,3-dihydro-5H-[1,4]thiazino[2,3,4-ij]quinazolin-5-one], the “% CAF 10 uM @ 60 min” value stood at 90%.

As to `C=CC(=O)N1CCN(c2nc(=O)n3c4c(c(-c5ccc(F)cc5)c(C(F)(F)F)cc24)SC[C@@H]3CN2C[C@@H]3C[C@H]2CO3)CC1` [Example 1350, (S)-3-(((1S,4S)-2-oxa-5-azabicyclo[2.2.1]heptan-5-yl)methyl)-7-(4-acryloylpiperazin-1-yl)-10-(4-fluorophenyl)-9-(trifluoromethyl)-2,3-dihydro-5H-[1,4]thiazino[2,3,4-ij]quinazolin-5-one], the “% CAF 10 uM @ 60 min” value is reported as 81.3%. Turning to `C=CC(=O)N1C[C@H](C)N(c2nc(=O)n3c4c(c(-c5ccc(F)cc5)c(C(F)(F)F)cc24)SC[C@@H]3CN2C[C@@H]3C[C@H]2CO3)C[C@H]1C` [Example 1351, (S)-3-(((1S,4S)-2-oxa-5-azabicyclo[2.2.1]heptan-5-yl)methyl)-7-((2S,5R)-4-acryloyl-2,5-dimethylpiperazin-1-yl)-10-(4-fluorophenyl)-9-(trifluoromethyl)-2,3-dihydro-5H-[1,4]thiazino[2,3,4-ij]quinazolin-5-one], the “% CAF 10 uM @ 60 min” value came out at 64.8%.

On to `C=CC(=O)N1[C@H](C)CN(c2nc(=O)n3c4c(c(-c5ccc(F)cc5)c(C(F)(F)F)cc24)SC[C@@H]3CN2C[C@@H]3C[C@H]2CO3)C[C@@H]1C` [Example 1352, (S)-3-(((1S,4S)-2-oxa-5-azabicyclo[2.2.1]heptan-5-yl)methyl)-7-((3S,5R)-4-acryloyl-3,5-dimethylpiperazin-1-yl)-10-(4-fluorophenyl)-9-(trifluoromethyl)-2,3-dihydro-5H-[1,4]thiazino[2,3,4-ij]quinazolin-5-one], for which the “% CAF 10 uM @ 60 min” value came to 96.1%. As for `C=CC(=O)N1[C@H](C)CN(c2nc(=O)n3c4c(c(-c5ccc(F)c(Cl)c5)c(C(F)(F)F)cc24)SCC2(COC2)C3)C[C@@H]1C` [Example 1353, 8′-((3S,5R)-4-acryloyl-3,5-dimethylpiperazin-1-yl)-11′-(3-chloro-4-fluorophenyl)-10′-(trifluoromethyl)-2′H,4′H,6′H-spiro[oxetane-3,3′-[1,4]thiazepino[2,3,4-ij]quinazolin]-6′-one], the “% CAF 10 uM @ 60 min” value was found to be 96.4%. Consider `C=CC(=O)N1C[C@H](C)N(c2nc(=O)n3c4c(c(-c5ccc(F)c(Cl)c5)c(C(F)(F)F)cc24)SCC2(COC2)C3)C[C@H]1C` [Example 1354, 8′-((2S,5R)-4-acryloyl-2,5-dimethylpiperazin-1-yl)-11′-(3-chloro-4-fluorophenyl)-10′-(trifluoromethyl)-2′H,4′H,6′H-spiro[oxetane-3,3′-[1,4]thiazepino[2,3,4-ij]quinazolin]-6′-one], for which the “% CAF 10 uM @ 60 min” value was 96%. For the compound `C=CC(=O)N1CCN(c2nc(=O)n3c4c(c(-c5ccc(F)c(Cl)c5)c(C(F)(F)F)cc24)SCC2(COC2)C3)CC1` [Example 1357, 8-(4-acryloylpiperazin-1-yl)-11-(3-chloro-4-fluorophenyl)-10-(trifluoromethyl)-2H-spiro[[1,4]thiazepino[2,3,4-ij]quinazoline-3,3′-oxetan]-6(4H)-one], the “% CAF 10 uM @ 60 min” value is reported as 92.4%. Under `C=CC(=O)N1C[C@H](C)N(c2nc(=O)n3c4c(c(-c5cc(Cl)c(F)cc5F)c(C(F)(F)F)cc24)SCC2(COC2)C3)C[C@H]1C` [Example 1357a] stands 74.3%. Under `C=CC(=O)N1CCN(c2nc(=O)n3c4c(c(-c5ccc(F)cc5)c(C(F)(F)F)cc24)SC[C@@H]3COCOC)CC1` [Example 1358, (S)-7-(4-acryloylpiperazin-1-yl)-10-(4-fluorophenyl)-3-((methoxymethoxy)methyl)-9-(trifluoromethyl)-2H-[1,4]thiazino[2,3,4-ij]quinazolin-5(3H)-one] stands 96.3%; under `C=CC(=O)N1[C@H](C)CN(c2nc(=O)n3c4c(c(-c5ccc(F)c(Cl)c5)c(C(F)(F)F)cc24)SC[C@@H]3COCOC)C[C@@H]1C` [Example 1359, (S)-7-((3S,5R)-4-acryloyl-3,5-dimethylpiperazin-1-yl)-10-(3-chloro-4-fluorophenyl)-3-((methoxymethoxy)methyl)-9-(trifluoromethyl)-2,3-dihydro-5H-[1,4]thiazino[2,3,4-ij]quinazolin-5-one], 74.6%; under `C=CC(=O)N1CCN(c2nc(=O)n3c4c(c(-c5ccc(F)c(Cl)c5)c(C(F)(F)F)cc24)SC[C@@H]3COCOC)CC1` [Example 1362, (S)-7-(4-acryloylpiperazin-1-yl)-10-(3-chloro-4-fluorophenyl)-3-((methoxymethoxy)methyl)-9-(trifluoromethyl)-2,3-dihydro-5H-[1,4]thiazino[2,3,4-ij]quinazolin-5-one], 96.2%. `C=CC(=O)N1C[C@H](C)N(c2nc(=O)n3c4c(c(-c5ccc(F)c(Cl)c5)c(C(F)(F)F)cc24)SC[C@@H]3COCOC)C[C@H]1C` [Example 1363, (S)-7-((2S,5R)-4-acryloyl-2,5-dimethylpiperazin-1-yl)-10-(3-chloro-4-fluorophenyl)-3-((methoxymethoxy)methyl)-9-(trifluoromethyl)-2,3-dihydro-5H-[1,4]thiazino[2,3,4-ij]quinazolin-5-one]: the “% CAF 10 uM @ 60 min” value is on record as 92.1%. Under `[2H]C([2H])=C([2H])C(=O)N1[C@H](C)CN(c2nc(=O)n3c4c(c(-c5ccc(F)cc5)c(C(F)(F)F)cc24)SC[C@@H]3COC)C[C@@H]1C` [Example 1366] stands 96.8%. With `C=CC(=O)N1[C@H](C)CN(c2nc(=O)n3c4c(c(-c5c(F)cccc5F)c(C(F)(F)F)cc24)SC[C@@H]3COC)C[C@@H]1C` [Example 1371, (S)-7-((3S,5R)-4-acryloyl-3,5-dimethylpiperazin-1-yl)-10-(2,6-difluorophenyl)-3-(methoxymethyl)-9-(trifluoromethyl)-2,3-dihydro-5H-[1,4]thiazino[2,3,4-ij]quinazolin-5-one], the “% CAF 10 uM @ 60 min” value is recorded as 60.6%. As for `C=CC(=O)N1[C@H](C)CN(c2nc(=O)n3c4c(c(-c5ccc(F)c(Cl)c5)c(C(F)(F)F)cc24)SC[C@@H]3CN2CCN(C3CC3)CC2)C[C@@H]1C` [Example 1372, (S)-7-((3S,5R)-4-acryloyl-3,5-dimethylpiperazin-1-yl)-10-(3-chloro-4-fluorophenyl)-3-((4-cyclopropylpiperazin-1-yl)methyl)-9-(trifluoromethyl)-2,3-dihydro-5H-[1,4]thiazino[2,3,4-ij]quinazolin-5-one], the “% CAF 10 uM @ 60 min” value is recorded as 77.2%.

As to `C=CC(=O)N1[C@H](C)CN(c2nc(=O)n3c4c(c(-c5ccc(F)c(Cl)c5)c(C(F)(F)F)cc24)SC[C@@H]3CN2CCN(CC)CC2)C[C@@H]1C` [Example 1373, (S)-7-((3S,5R)-4-acryloyl-3,5-dimethylpiperazin-1-yl)-10-(3-chloro-4-fluorophenyl)-3-((4ethylpiperazin-1-yl)methyl)-9-(trifluoromethyl)-2,3-dihydro-5H-[1,4]thiazino[2,3,4-ij]quinazolin-5-one], the “% CAF 10 uM @ 60 min” value was determined as 66.2%. For `C=CC(=O)N1[C@H](C)CN(c2nc(=O)n3c4c(c(-c5c(F)cc(F)cc5F)c(C(F)(F)F)cc24)SC[C@@H]3COC)C[C@@H]1C` [Example 1374, (S)-7-((3S,5R)-4-acryloyl-3,5-dimethylpiperazin-1-yl)-3-(methoxymethyl)-9-(trifluoromethyl)-10-(2,4,6-trifluorophenyl)-2,3-dihydro-5H-[1,4]thiazino[2,3,4-ij]quinazolin-5-one] the value was 88.5%. For `C=CC(=O)N1CCN(c2nc(=O)n3c4c(c(-c5c(F)cccc5F)c(C(F)(F)F)cc24)SC[C@@H]3COC)CC1` [Example 1377, (S)-7-(4-acryloylpiperazin-1-yl)-10-(2,6-difluorophenyl)-3-(methoxymethyl)-9-(trifluoromethyl)-2,3-dihydro-5H-[1,4]thiazino[2,3,4-ij]quinazolin-5-one] the value was 95.5%.
